Measurements published in PMC5218480 (PLoS ONE, 2017).

Test system: MV-4-11 cells
Assay: Gene expression microarray analysis (Affymetrix PrimeView) and GSEA
Assay type: cell-based, human
Parameters: RFU PODN (11730768_x_at) / Fold change /veh PODN (11730768_x_at) / RFU LINC00158 (11744669_a_at) / Fold change /veh LINC00158 (11744669_a_at) / RFU DUSP10 (11751237_a_at) / Fold change /veh DUSP10 (11751237_a_at) / RFU ID3 (11757404_x_at) / Fold change /veh ID3 (11757404_x_at) / RFU PLEKHG5 (11737974_s_at) / Fold change /veh PLEKHG5 (11737974_s_at) / RFU LRRC4B (11730491_at) / Fold change /veh LRRC4B (11730491_at) / RFU GIMAP4 (11747438_a_at) / Fold change /veh GIMAP4 (11747438_a_at) / RFU KRT8 (11758183_x_at) / Fold change /veh KRT8 (11758183_x_at) / RFU CNN1 (11734310_a_at) / Fold change /veh CNN1 (11734310_a_at) / RFU VPS37D (11726825_at) / Fold change /veh VPS37D (11726825_at) / RFU C10orf10 (11716522_x_at) / Fold change /veh C10orf10 (11716522_x_at) / RFU KIR2DL2 /// KIR2DL4 /// KIR2DL5A /// KIR2DL5B /// KIR2DS1 /// KIR2DS2 /// KIR2DS3 /// KIR2DS4 /// KIR3DL3 /// KIR3DL3 /// KIR3DS1 (11738374_at) / Fold change /veh KIR2DL2 /// KIR2DL4 /// KIR2DL5A /// KIR2DL5B /// KIR2DS1 /// KIR2DS2 /// KIR2DS3 /// KIR2DS4 /// KIR3DL3 /// KIR3DL3 /// KIR3DS1 (11738374_at) / RFU C1QL1 (11718748_at) / Fold change /veh C1QL1 (11718748_at) / RFU TMPRSS4 (11747572_a_at) / Fold change /veh TMPRSS4 (11747572_a_at) / RFU HAMP (11756126_x_at) / Fold change /veh HAMP (11756126_x_at) / RFU RNFT2 (11725882_a_at) / Fold change /veh RNFT2 (11725882_a_at) / RFU NR4A2 (11747474_a_at) / Fold change /veh NR4A2 (11747474_a_at) / RFU ABCC12 (11746883_a_at) / Fold change /veh ABCC12 (11746883_a_at) / RFU TMEM136 (11760407_x_at) / Fold change /veh TMEM136 (11760407_x_at) / RFU CLDN22 /// WWC2 (11732394_at) / Fold change /veh CLDN22 /// WWC2 (11732394_at) / RFU HLA-DPB1 (11760878_x_at) / Fold change /veh HLA-DPB1 (11760878_x_at) / RFU SPINT1 (11716480_a_at) / Fold change /veh SPINT1 (11716480_a_at) / RFU GAP43 (11754022_s_at) / Fold change /veh GAP43 (11754022_s_at) / RFU A4GNT (11735810_at) / Fold change /veh A4GNT (11735810_at) / RFU PRB3 (11715151_x_at) / Fold change /veh PRB3 (11715151_x_at) / RFU TUBB4B (11761932_at) / Fold change /veh TUBB4B (11761932_at) / RFU CAPN14 (11732068_a_at) / Fold change /veh CAPN14 (11732068_a_at) / RFU TMCC2 (11721928_a_at) / Fold change /veh TMCC2 (11721928_a_at) / RFU IRGQ (11745062_a_at) / Fold change /veh IRGQ (11745062_a_at) / RFU FAM174B (11720279_a_at) / Fold change /veh FAM174B (11720279_a_at) / RFU TMPRSS4 (11748680_a_at) / Fold change /veh TMPRSS4 (11748680_a_at) / RFU FAM212B (11763350_a_at) / Fold change /veh FAM212B (11763350_a_at) / RFU PLEKHG5 (11743358_a_at) / Fold change /veh PLEKHG5 (11743358_a_at) / RFU ZSCAN30 (11745921_a_at) / Fold change /veh ZSCAN30 (11745921_a_at) / RFU CMKLR1 (11741424_a_at) / Fold change /veh CMKLR1 (11741424_a_at) / RFU LOC101060620 /// MAPK8IP1 (11723275_at) / Fold change /veh LOC101060620 /// MAPK8IP1 (11723275_at) / RFU SPTSSB (11747773_x_at) / Fold change /veh SPTSSB (11747773_x_at) / RFU PRSS12 (11739890_at) / Fold change /veh PRSS12 (11739890_at) / RFU BIN1 (11741810_x_at) / Fold change /veh BIN1 (11741810_x_at) / RFU WNT11 (11732464_a_at) / Fold change /veh WNT11 (11732464_a_at) / RFU C10orf10 (11716521_a_at) / Fold change /veh C10orf10 (11716521_a_at) / RFU C5orf56 (11738089_at) / Fold change /veh C5orf56 (11738089_at) / RFU CYB561 (11721691_x_at) / Fold change /veh CYB561 (11721691_x_at) / RFU ANKRD19P (11752326_a_at) / Fold change /veh ANKRD19P (11752326_a_at) / RFU OR2T12 /// OR2T33 /// OR2T8 (11738714_s_at) / Fold change /veh OR2T12 /// OR2T33 /// OR2T8 (11738714_s_at) / RFU VCAN (11748164_a_at) / Fold change /veh VCAN (11748164_a_at) / RFU JSRP1 (11732532_at) / Fold change /veh JSRP1 (11732532_at) / RFU KRTAP10-11 (11738290_x_at) / Fold change /veh KRTAP10-11 (11738290_x_at) / RFU MYO3A (11730013_a_at) / Fold change /veh MYO3A (11730013_a_at) / RFU EBF3 (11725865_a_at) / Fold change /veh EBF3 (11725865_a_at) / RFU CAMK2N1 (11719241_x_at) / Fold change /veh CAMK2N1 (11719241_x_at) / RFU C5orf56 (11738088_a_at) / Fold change /veh C5orf56 (11738088_a_at) / RFU OLFML3 (11715873_a_at) / Fold change /veh OLFML3 (11715873_a_at) / RFU LOC100653217 /// NTM (11731650_a_at) / Fold change /veh LOC100653217 /// NTM (11731650_a_at) / RFU MAPK11 (11762145_a_at) / Fold change /veh MAPK11 (11762145_a_at) / RFU FIZ1 (11724087_x_at) / Fold change /veh FIZ1 (11724087_x_at) / RFU OASL (11726364_x_at) / Fold change /veh OASL (11726364_x_at) / RFU SOX15 (11748057_x_at) / Fold change /veh SOX15 (11748057_x_at) / RFU CD79A (11719716_a_at) / Fold change /veh CD79A (11719716_a_at) / RFU HIST1H1D (11736915_at) / Fold change /veh HIST1H1D (11736915_at) / RFU CASKIN2 (11723855_a_at) / Fold change /veh CASKIN2 (11723855_a_at) / RFU LOC730098 (11760151_x_at) / Fold change /veh LOC730098 (11760151_x_at) / RFU OR4N2 (11742367_at) / Fold change /veh OR4N2 (11742367_at) / RFU PRRT2 (11749266_a_at) / Fold change /veh PRRT2 (11749266_a_at) / RFU SNX32 (11753110_a_at) / Fold change /veh SNX32 (11753110_a_at) / RFU CDHR5 (11726645_a_at) / Fold change /veh CDHR5 (11726645_a_at) / RFU RCAN1 (11760418_a_at) / Fold change /veh RCAN1 (11760418_a_at) / RFU FAM167A (11723789_a_at) / Fold change /veh FAM167A (11723789_a_at) / RFU FAM26E (11764081_at) / Fold change /veh FAM26E (11764081_at) / RFU ISYNA1 (11749810_s_at) / Fold change /veh ISYNA1 (11749810_s_at) / RFU ACY1 (11761880_at) / Fold change /veh ACY1 (11761880_at) / RFU 11764098_at / Fold change /veh 11764098_at / RFU SAMD14 (11745864_x_at) / Fold change /veh SAMD14 (11745864_x_at) / RFU NPB (11741838_a_at) / Fold change /veh NPB (11741838_a_at) / RFU TMPRSS6 (11731388_a_at) / Fold change /veh TMPRSS6 (11731388_a_at) / RFU KRTAP10-2 (11738614_at) / Fold change /veh KRTAP10-2 (11738614_at) / RFU ARHGAP8 /// PRR5-ARHGAP8 (11727945_x_at) / Fold change /veh ARHGAP8 /// PRR5-ARHGAP8 (11727945_x_at) / RFU KRTAP5-7 /// NADSYN1 (11734609_at) / Fold change /veh KRTAP5-7 /// NADSYN1 (11734609_at) / RFU RASL12 (11751679_a_at) / Fold change /veh RASL12 (11751679_a_at) / RFU CDKN2B (11736163_a_at) / Fold change /veh CDKN2B (11736163_a_at) / RFU PRF1 (11729649_at) / Fold change /veh PRF1 (11729649_at) / RFU, ZNF638 /// ZNF638-IT1 / Fold change vs veh, ZNF638 /// ZNF638-IT1 / RFU, PANK3 / Fold change vs veh, PANK3 / RFU, SH3YL1 / Fold change vs veh, SH3YL1 / RFU, ZEB2 / Fold change vs veh, ZEB2 / RFU, NRIP1 / Fold change vs veh, NRIP1 / RFU, PTTG1IP / Fold change vs veh, PTTG1IP / RFU, CAPN2 / Fold change vs veh, CAPN2 / RFU, MED14 / Fold change vs veh, MED14 / RFU, SNORA58 / Fold change vs veh, SNORA58 / RFU, C1orf63 / Fold change vs veh, C1orf63 / RFU, LRRFIP1 / Fold change vs veh, LRRFIP1 / RFU, NDUFAF7 / Fold change vs veh, NDUFAF7 / RFU, SLC12A2 / Fold change vs veh, SLC12A2 / RFU, IBTK / Fold change vs veh, IBTK / RFU, ESF1 / Fold change vs veh, ESF1 / Fold change vs veh, TMEM50B / RFU, TAOK1 / Fold change vs veh, TAOK1 / RFU, ACBD3 / Fold change vs veh, ACBD3 / RFU, TMA16 / Fold change vs veh, TMA16 / RFU, RWDD3 / Fold change vs veh, RWDD3 / RFU, BCAT1 / Fold change vs veh, BCAT1 / RFU, EDEM3 / Fold change vs veh, EDEM3 / RFU, TMEM33 / Fold change vs veh, TMEM33 / RFU, WDR75 / Fold change vs veh, WDR75 / RFU, AHCTF1 / Fold change vs veh, AHCTF1 / RFU, TFRC / Fold change vs veh, TFRC / RFU, ZDHHC17 / Fold change vs veh, ZDHHC17 / RFU, NOM1 / Fold change vs veh, NOM1 / RFU, ARL8B / Fold change vs veh, ARL8B / RFU, ZBTB11 / Fold change vs veh, ZBTB11 / RFU, TAMM41 / Fold change vs veh, TAMM41 / RFU, KIAA1704 /// LOC100996395 / Fold change vs veh, KIAA1704 /// LOC100996395 / RFU, ING1 / Fold change vs veh, ING1 / RFU, TRMT61B / Fold change vs veh, TRMT61B / RFU, FUBP3 / Fold change vs veh, FUBP3 / RFU, TP53 / Fold change vs veh, TP53 / RFU, TNKS2 / Fold change vs veh, TNKS2 / RFU, ZFP14 / Fold change vs veh, ZFP14 / RFU, ACTR2 / Fold change vs veh, ACTR2 / RFU, PPP3R1 / Fold change vs veh, PPP3R1 / RFU, PIK3R1 / Fold change vs veh, PIK3R1 / RFU, HNRNPA1 / Fold change vs veh, HNRNPA1 / RFU, RNF170 / Fold change vs veh, RNF170 / RFU, ZNF28 / Fold change vs veh, ZNF28 / RFU, RNGTT / Fold change vs veh, RNGTT / RFU, OGT / Fold change vs veh, OGT / RFU, BRD1 / Fold change vs veh, BRD1 / RFU, MARS / Fold change vs veh, MARS / RFU, ZNF655 / Fold change vs veh, ZNF655 / RFU, FAHD1 / Fold change vs veh, FAHD1 / RFU, BDP1 / Fold change vs veh, BDP1 / RFU, LRRCC1 / Fold change vs veh, LRRCC1 / RFU, ARID1A / Fold change vs veh, ARID1A / RFU, ZNF146 / Fold change vs veh, ZNF146 / RFU, ZNF330 / Fold change vs veh, ZNF330 / RFU, GPN3 / Fold change vs veh, GPN3 / RFU, C9orf123 / Fold change vs veh, C9orf123 / RFU, N4BP2L2 / Fold change vs veh, N4BP2L2 / RFU, ARFIP1 / Fold change vs veh, ARFIP1 / RFU, FAM179B / Fold change vs veh, FAM179B / RFU, BCL10 / Fold change vs veh, BCL10 / RFU, UHRF1BP1L / Fold change vs veh, UHRF1BP1L / RFU, BET1 / Fold change vs veh, BET1 / RFU, CNOT2 / Fold change vs veh, CNOT2 / RFU, ZNF268 / Fold change vs veh, ZNF268 / Fold change vs veh, ZNF507 / RFU, DGCR2 / Fold change vs veh, DGCR2 / RFU, WDSUB1 / Fold change vs veh, WDSUB1 / Fold change vs veh, HSP90B1 /// MIR3652 / RFU, ADSS / Fold change vs veh, ADSS / RFU, GK / Fold change vs veh, GK / RFU, ZNF148 / Fold change vs veh, ZNF148 / RFU, TAF9 / Fold change vs veh, TAF9 / RFU, SLC1A5 / Fold change vs veh, SLC1A5 / RFU, SLMO2 / Fold change vs veh, SLMO2 / RFU, ABCC4 / Fold change vs veh, ABCC4 / RFU, LOC101060439 /// RAP1B / Fold change vs veh, LOC101060439 /// RAP1B / RFU, RFX7 / Fold change vs veh, RFX7 / RFU, GTPBP10 / Fold change vs veh, GTPBP10 / RFU, CNEP1R1 / Fold change vs veh, CNEP1R1 / RFU, BIVM-ERCC5 /// ERCC5 / Fold change vs veh, BIVM-ERCC5 /// ERCC5 / RFU, ILF3 / Fold change vs veh, ILF3 / RFU 11762660_at / Fold change /veh 11762660_at / RFU VCAN (11757783_s_at) / Fold change /veh VCAN (11757783_s_at) / RFU DDX43 (11728927_at) / Fold change /veh DDX43 (11728927_at) / RFU KRT8 (11758188_x_at) / Fold change /veh KRT8 (11758188_x_at) / RFU NKD1 (11759106_at) / Fold change /veh NKD1 (11759106_at) / RFU SRD5A1 (11742802_a_at) / Fold change /veh SRD5A1 (11742802_a_at) / RFU TPSAB1 /// TPSB2 (11721975_s_at) / Fold change /veh TPSAB1 /// TPSB2 (11721975_s_at) / RFU GSTM3 (11746129_a_at) / Fold change /veh GSTM3 (11746129_a_at) / RFU IL23R (11737362_x_at) / Fold change /veh IL23R (11737362_x_at) / RFU TMEM51 (11727254_a_at) / Fold change /veh TMEM51 (11727254_a_at) / RFU PIWIL2 (11732686_x_at) / Fold change /veh PIWIL2 (11732686_x_at) / RFU ORM1 (11744905_x_at) / Fold change /veh ORM1 (11744905_x_at) / RFU CCDC152 (11743942_at) / Fold change /veh CCDC152 (11743942_at) / RFU ECM1 (11717891_a_at) / Fold change /veh ECM1 (11717891_a_at) / RFU IL23R (11748794_a_at) / Fold change /veh IL23R (11748794_a_at) / RFU TNFAIP8L3 (11732012_x_at) / Fold change /veh TNFAIP8L3 (11732012_x_at) / RFU MBOAT4 (11741988_at) / Fold change /veh MBOAT4 (11741988_at) / RFU 11764193_at / Fold change /veh 11764193_at / RFU TMEM53 (11763286_at) / Fold change /veh TMEM53 (11763286_at) / RFU MAGEB2 (11727129_at) / Fold change /veh MAGEB2 (11727129_at) / RFU TMEM200A (11744735_a_at) / Fold change /veh TMEM200A (11744735_a_at) / RFU CCDC152 (11751479_a_at) / Fold change /veh CCDC152 (11751479_a_at) / RFU FAM211A (11726209_a_at) / Fold change /veh FAM211A (11726209_a_at) / RFU RGS16 (11746705_a_at) / Fold change /veh RGS16 (11746705_a_at) / RFU VCAN (11755009_s_at) / Fold change /veh VCAN (11755009_s_at) / RFU RHOB (11743442_s_at) / Fold change /veh RHOB (11743442_s_at) / RFU RGS16 (11720943_a_at) / Fold change /veh RGS16 (11720943_a_at) / RFU RGS16 (11720944_at) / Fold change /veh RGS16 (11720944_at) / RFU, VPS4B / Fold change vs veh, VPS4B / RFU, CREB1 / Fold change vs veh, CREB1 / RFU, DNAJC13 / Fold change vs veh, DNAJC13 / RFU, GNAQ / Fold change vs veh, GNAQ / RFU, CDK5R1 / Fold change vs veh, CDK5R1 / RFU, ZRANB3 / Fold change vs veh, ZRANB3 / RFU, CUL4A / Fold change vs veh, CUL4A / RFU, CCNY / Fold change vs veh, CCNY / RFU, UFL1 / Fold change vs veh, UFL1 / RFU, COG3 / Fold change vs veh, COG3 / RFU, DIAPH2 / Fold change vs veh, DIAPH2 / RFU, SKA2 / Fold change vs veh, SKA2 / RFU, AFF3 / Fold change vs veh, AFF3 / RFU, LMF1 / Fold change vs veh, LMF1 / RFU, IPO11 / Fold change vs veh, IPO11 / RFU, DFFB / Fold change vs veh, DFFB / RFU, FOXP1 / Fold change vs veh, FOXP1 / RFU, CARD8 / Fold change vs veh, CARD8 / RFU, STRN3 / Fold change vs veh, STRN3 / RFU, ADK / Fold change vs veh, ADK / RFU, RASSF2 / Fold change vs veh, RASSF2 / RFU, WIPF1 / Fold change vs veh, WIPF1 / RFU, LARP1B / Fold change vs veh, LARP1B / RFU, RASA1 / Fold change vs veh, RASA1 / RFU, RB1 / Fold change vs veh, RB1 / RFU, PPFIA1 / Fold change vs veh, PPFIA1 / RFU, MAT2A / Fold change vs veh, MAT2A / RFU, CCT5 / Fold change vs veh, CCT5 / RFU, WDR92 / Fold change vs veh, WDR92 / RFU, CUX1 / Fold change vs veh, CUX1 / RFU, TTC7A / Fold change vs veh, TTC7A / RFU, TMEM135 / Fold change vs veh, TMEM135 / RFU, DEPTOR / Fold change vs veh, DEPTOR / RFU, CPM / Fold change vs veh, CPM / RFU, DNAJB6 / Fold change vs veh, DNAJB6 / RFU, CACNA2D3 / Fold change vs veh, CACNA2D3 / RFU, DTX4 / Fold change vs veh, DTX4 / RFU, TFCP2 / Fold change vs veh, TFCP2 / RFU, GMCL1 /// GMCL1P1 / Fold change vs veh, GMCL1 /// GMCL1P1 / RFU, AEBP2 / Fold change vs veh, AEBP2 / RFU, SNHG1 /// SNORD22 /// SNORD25 /// SNORD26 /// SNORD27 /// SNORD28 /// SNORD29 /// SNORD31 / Fold change vs veh, SNHG1 /// SNORD22 /// SNORD25 /// SNORD26 /// SNORD27 /// SNORD28 /// SNORD29 /// SNORD31 / Fold change (Aza/veh), C12orf56 (ProbeSet 11735607_a_at) / Fold change (ACY-1035/veh), C12orf56 (ProbeSet 11735607_a_at) / Fold change (Aza/veh), FGFR1OP (ProbeSet 11751329_s_at) / Fold change (ACY-1035/veh), FGFR1OP (ProbeSet 11751329_s_at) / Fold change (Aza/veh), VPS36 (ProbeSet 11739960_a_at) / Fold change (ACY-1035/veh), VPS36 (ProbeSet 11739960_a_at) / RFU SYPL1 (11715823_x_at) / Fold change /veh SYPL1 (11715823_x_at) / RFU IGFBP7 (11715501_s_at) / Fold change /veh IGFBP7 (11715501_s_at) / RFU REEP3 (11722064_at) / Fold change /veh REEP3 (11722064_at) / RFU IGLL1 (11728026_x_at) / Fold change /veh IGLL1 (11728026_x_at): dose or concentration left out as unconfirmed
Details: MV-4-11 cells, 48 hours

## Nc1ccc(-c2cccs2)cc1NC(=O)c1ccc2c(c1)cc(C1CC1)n2CCN1CCOCC1 [ACY-1035]
  Fold change /veh OR4N2 (11742367_at): 1.06
